Patent US9399646B2 (Genentech, Inc., priority 2010, dated 2016)

Columns and labels:
ER-α in MCF-7 cells = molecular target: T1, ER-α in MCF-7 cells (Homo sapiens, UniProt P03372); test: Breast cancer cell ER-α in cell western assay (SP1); assay type: cell-based; parameters: endogenous in cells; host or cells: MCF-7; conditions: 4 or 24 hr post compound addition; for Emax: MCF7, SP1 antibody, read-out: ER-α In Cell Western Assay (SP1) Max Response; for DC50: SP1 antibody, read-out: ER-α In Cell Western Assay (SP1) IC50
T1 sequence (P03372 1-595): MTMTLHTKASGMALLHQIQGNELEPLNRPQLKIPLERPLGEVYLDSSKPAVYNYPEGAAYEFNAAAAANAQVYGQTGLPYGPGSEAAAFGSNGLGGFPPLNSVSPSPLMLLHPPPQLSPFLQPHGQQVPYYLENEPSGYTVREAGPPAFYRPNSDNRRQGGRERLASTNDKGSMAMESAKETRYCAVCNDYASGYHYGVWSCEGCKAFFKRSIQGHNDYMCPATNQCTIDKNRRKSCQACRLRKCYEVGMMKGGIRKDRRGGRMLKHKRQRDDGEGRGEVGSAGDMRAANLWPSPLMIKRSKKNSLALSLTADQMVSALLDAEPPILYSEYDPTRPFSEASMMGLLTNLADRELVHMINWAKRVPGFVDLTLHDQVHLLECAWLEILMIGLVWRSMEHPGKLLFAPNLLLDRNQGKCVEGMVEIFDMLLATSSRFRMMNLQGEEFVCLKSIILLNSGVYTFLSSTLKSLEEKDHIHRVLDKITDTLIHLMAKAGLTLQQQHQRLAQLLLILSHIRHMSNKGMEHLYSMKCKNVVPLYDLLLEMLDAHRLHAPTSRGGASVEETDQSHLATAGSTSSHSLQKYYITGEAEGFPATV
Procedure, shortened: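 MCF-7, charcoal-stripped FBS/RPMI, 3200 cells/well, adhered overnight. Formalin fix, SP1 Ab o/n 4 °C, IRDye 800CW + DRAQ5; % ER = 800/700 ratio vs untreated.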

MCF-7 cells = test: Breast cancer cell viability assay (CellTiter-Glo, 5 days); assay type: cell-based; conditions: 5 days' compound exposure; for IC50: Homo sapiens, MCF7, 120 h
Procedure, shortened: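 Eleven-point semilog compound series, final 0.3-0.000003 μM, added to overnight-adhered MCF-7 cells (320/well; RPMI, 10% FBS, 20 mM HEPES) for 5 days. Viability read by CellTiter-Glo luminescence, background from medium without cells subtracted, expressed relative to untreated cells.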

Structure (SMILES) | Emax (ER-α in MCF-7 cells) [%] | DC50 (ER-α in MCF-7 cells) [nM] | MCF7 Viability Assay Max Response (MCF-7 cells) | IC50 (MCF-7 cells) [nM]
CC/C(=C(/c1ccc(/C=C/C(=O)O)cc1)c1ccc2[nH]ncc2c1)c1cccc(Oc2nccs2)c1 [Compound 370, (E)-3-(4-((E)-1-(1H-Indazol-5-yl)-2-(3-(thiazol-2-yloxy)phenyl)but-1-en-1-yl)phenyl)acrylic acid] | ≥ 40 | ≤ 100 | ++ (++ = a single % value ≧ 40%) | ≤ 100
CC/C(=C(/c1ccc(/C=C/C(=O)O)cc1)c1ccc2[nH]ncc2c1)c1cccc(Oc2cnccn2)c1 [Compound 371, (E)-3-(4-((E)-1-(1H-Indazol-5-yl)-2-(3-(pyrazin-2-yloxy)phenyl)but-1-en-1-yl)phenyl)acrylic acid] | ≥ 40 | ≤ 100 | ++ (++ = a single % value ≧ 40%) | ≤ 100
CC/C(=C(/c1ccc(/C=C/C(=O)O)cc1)c1ccc2[nH]ncc2c1)c1cccc(Oc2ccncc2C(F)(F)F)c1 [Compound 372, (E)-3-(4-((E)-1-(1H-Indazol-5-yl)-2-(3-((3-(trifluoromethyl)pyridin-4-yl)oxy)phenyl)but-1-en-1-yl)phenyl)acrylic acid] | ≥ 40 | ≤ 100 | ++ (++ = a single % value ≧ 40%) | > 100
CC/C(=C(/c1ccc(/C=C/C(=O)O)cc1)c1ccc2[nH]ncc2c1)c1cccc(Oc2ccc(S(C)(=O)=O)cc2)c1 [Compound 373, (E)-3-(4-((E)-1-(1H-Indazol-5-yl)-2-(3-(4-(methylsulfonyl)phenoxy)phenyl)but-1-en-1-yl)phenyl)acrylic acid] | ≥ 40 | ≤ 100 | ++ (++ = a single % value ≧ 40%) | ≤ 100
CC/C(=C(/c1ccc(/C=C/C(=O)O)cc1)c1ccc2[nH]ncc2c1)c1cccc(Oc2ccccc2S(C)(=O)=O)c1 [Compound 374, (E)-3-(4-((E)-1-(1H-Indazol-5-yl)-2-(3-(2-(methylsulfonyl)phenoxy)phenyl)but-1-en-1-yl)phenyl)acrylic acid] | ≥ 40 | > 100 | ++ (++ = a single % value ≧ 40%) | > 100
CC/C(=C(/c1ccc(/C=C/C(=O)O)cc1)c1ccc2[nH]ncc2c1F)c1cccc(Oc2ccccn2)c1 [Compound 375, (E)-3-(4-((E)-1-(4-Fluoro-1H-indazol-5-yl)-2-(3-(pyridin-2-yloxy)phenyl)but-1-en-1-yl)phenyl)acrylic acid] | ≥ 40 | ≤ 100 | ++ (++ = a single % value ≧ 40%) | ≤ 100
CC/C(=C(/c1ccc(/C=C/C(=O)O)cc1)c1ccc2[nH]ncc2c1F)c1cccc(Oc2ncccn2)c1 [Compound 376, (E)-3-(4-((E)-1-(4-Fluoro-1H-indazol-5-yl)-2-(3-(pyrimidin-2-yloxy)phenyl)but-1-en-1-yl)phenyl)acrylic acid] | ≥ 40 | ≤ 100 | ++ (++ = a single % value ≧ 40%) | ≤ 100
CC/C(=C(/c1ccc(/C=C/C(=O)O)cc1)c1ccc2[nH]ncc2c1F)c1cccc(Oc2cnccn2)c1 [Compound 377, (E)-3-(4-((E)-1-(4-Fluoro-1H-indazol-5-yl)-2-(3-(pyrazin-2-yloxy)phenyl)but-1-en-1-yl)phenyl)acrylic acid] | ≥ 40 | ≤ 100 | ++ (++ = a single % value ≧ 40%) | ≤ 100
CC/C(=C(/c1ccc(/C=C/C(=O)O)cc1)c1ccc2[nH]ncc2c1F)c1cccc(Oc2ccc(S(C)(=O)=O)nc2)c1 [Compound 378, (E)-3-(4-((E)-1-(4-Fluoro-1H-indazol-5-yl)-2-(3-((6-(methylsulfonyl)pyridin-3-yl)oxy)phenyl)but-1-en-1-yl)phenyl)acrylic acid] | ≥ 40 | ≤ 100 | ++ (++ = a single % value ≧ 40%) | ≤ 100
CC/C(=C(/c1ccc(/C=C/C(=O)O)cc1)c1ccc2[nH]ncc2c1)c1cccc(Oc2ccc(S(C)(=O)=O)cn2)c1 [Compound 379, (E)-3-(4-((E)-1-(1H-Indazol-5-yl)-2-(3-((5-(methylsulfonyl)pyridin-2-yl)oxy)phenyl)but-1-en-1-yl)phenyl)acrylic acid] | ≥ 40 | ≤ 100 | ++ (++ = a single % value ≧ 40%) | ≤ 100
CC/C(=C(/c1ccc(/C=C/C(=O)O)cc1)c1ccc2[nH]ncc2c1)c1cccc(Oc2ccc(S(C)(=O)=O)nc2)c1 [Compound 380, (E)-3-(4-((E)-1-(1H-Indazol-5-yl)-2-(3-((6-(methylsulfonyl)pyridin-3-yl)oxy)phenyl)but-1-en-1-yl)phenyl)acrylic acid] | ≥ 40 | ≤ 100 | ++ (++ = a single % value ≧ 40%) | > 100
CC/C(=C(/c1ccc(/C=C/C(=O)O)cc1)c1ccc2[nH]ncc2c1)c1cccc(Oc2ccc(C(F)(F)F)cn2)c1 [Compound 381, (E)-3-(4-((E)-1-(1H-Indazol-5-yl)-2-(3-((5-(trifluoromethyl)pyridin-2-yl)oxy)phenyl)but-1-en-1-yl)phenyl)acrylic acid] | ≥ 40 | ≤ 100 | ++ (++ = a single % value ≧ 40%) | ≤ 100
CC/C(=C(/c1ccc(/C=C/C(=O)O)cc1)c1ccc2[nH]ncc2c1)c1cccc(Oc2ccc(C)nc2)c1 [Compound 382, (E)-3-(4-((E)-1-(1H-Indazol-5-yl)-2-(3-((6-methylpyridin-3-yl)oxy)phenyl)but-1-en-1-yl)phenyl)acrylic acid] | ≥ 40 | ≤ 100 | ++ (++ = a single % value ≧ 40%) | ≤ 100
CC/C(=C(/c1ccc(/C=C/C(=O)O)cc1)c1ccc2[nH]ncc2c1)c1ccc(-c2cncnc2)cc1 [Compound 383, (E)-3-(4-((E)-1-(1H-Indazol-5-yl)-2-(4-(pyrimidin-5-yl)phenyl)but-1-en-1-yl)phenyl)acrylic acid] | ≥ 40 | > 100 | ++ (++ = a single % value ≧ 40%) | > 100
CC/C(=C(/c1ccc(/C=C/C(=O)O)cc1)c1ccc2[nH]ncc2c1)c1ccc(-c2cnn(C)c2)cc1 [Compound 384, (E)-3-(4-((E)-1-(1H-Indazol-5-yl)-2-(4-(1-methyl-1H-pyrazol-4-yl)phenyl)but-1-en-1-yl)phenyl)acrylic acid] | ≥ 40 | > 100 | ++ (++ = a single % value ≧ 40%) | > 100
CC/C(=C(/c1ccc(/C=C/C(=O)O)cc1)c1ccc2[nH]ncc2c1)c1ccc(-c2ccccn2)cc1 [Compound 385, (E)-3-(4-((E)-1-(1H-Indazol-5-yl)-2-(4-(pyridin-2-yl)phenyl)but-1-en-1-yl)phenyl)acrylic acid] | ≥ 40 | ≤ 100 | ++ (++ = a single % value ≧ 40%) | > 100
CC/C(=C(/c1ccc(/C=C/C(=O)O)cc1)c1ccc2[nH]ncc2c1)c1ccc(-c2ccsc2)cc1 [Compound 386, (E)-3-(4-((E)-1-(1H-Indazol-5-yl)-2-(4-(thiophen-3-yl)phenyl)but-1-en-1-yl)phenyl)acrylic acid] | ≥ 40 | ≤ 100 | ++ (++ = a single % value ≧ 40%) | > 100
CC/C(=C(/c1ccc(/C=C/C(=O)O)cc1)c1ccc2[nH]ncc2c1)c1ccc(-c2nccs2)cc1 [Compound 387, (E)-3-(4-((E)-1-(1H-Indazol-5-yl)-2-(4-(thiazol-2-yl)phenyl)but-1-en-1-yl)phenyl)acrylic acid] | ≥ 40 | ≤ 100 | ++ (++ = a single % value ≧ 40%) | > 100
CC/C(=C(/c1ccc(/C=C/C(=O)O)cc1)c1ccc2[nH]ncc2c1)c1ccc(-c2cscn2)cc1 [Compound 388, (E)-3-(4-((E)-1-(1H-Indazol-5-yl)-2-(4-(thiazol-4-yl)phenyl)but-1-en-1-yl)phenyl)acrylic acid] | ≥ 40 | ≤ 100 | ++ (++ = a single % value ≧ 40%) | > 100
CC/C(=C(/c1ccc(/C=C/C(=O)O)cc1)c1ccc2[nH]ncc2c1)c1ccc(-c2cnccn2)cc1 [Compound 389, (E)-3-(4-((E)-1-(1H-Indazol-5-yl)-2-(4-(pyrazin-2-yl)phenyl)but-1-en-1-yl)phenyl)acrylic acid] | ≥ 40 | ≤ 100 | ++ (++ = a single % value ≧ 40%) | > 100
